Laboratory results as given in US8642629B2, “Naphthylacetic acids” (Hoffmann-La Roche Inc., priority 2008, dated 2014).

biological target: T1, human CRTH2 (Homo sapiens, UniProt Q9Y5Y4); experiment: Human CRTH2 Receptor Binding Assay (whole cell, [3H]ramatroban competition); conditions: CHO-K1 cells expressing human CRTH2 and G-alpha16; 20 nM [3H]ramatroban; 1 hour, room temperature
T1 construct: expressed in transfected cells; host or cells: CHO-K1
T1 sequence (Q9Y5Y4 1-395): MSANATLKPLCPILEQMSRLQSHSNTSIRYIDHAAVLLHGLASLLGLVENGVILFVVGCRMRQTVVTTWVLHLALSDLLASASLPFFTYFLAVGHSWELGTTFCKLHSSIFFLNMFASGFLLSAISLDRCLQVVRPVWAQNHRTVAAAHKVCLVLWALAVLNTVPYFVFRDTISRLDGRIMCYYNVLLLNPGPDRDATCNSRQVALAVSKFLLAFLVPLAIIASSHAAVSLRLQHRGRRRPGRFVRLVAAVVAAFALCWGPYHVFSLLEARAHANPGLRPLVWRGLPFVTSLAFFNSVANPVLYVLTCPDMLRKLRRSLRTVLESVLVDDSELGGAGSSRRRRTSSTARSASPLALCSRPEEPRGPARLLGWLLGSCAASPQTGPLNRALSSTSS
Description: A whole cell receptor binding assay using [^3H]ramatroban as the competing radioactive ligand was employed to evaluate the compound binding activity to human CRTH2. The radioactive ligand [^3H]ramatroban was synthesized according to Sugimoto et. al. (Eur. J. Pharmacol. 524, 30-37, 2005) to a specific activity of 42 Ci/mmol.
A cell line stably expressing human CRTH2 was established by transfecting CHO-K1 cells with two mammalian expression vectors that harbored human CRTH2 and G-alpha16 cDNAs, respectively, using FuGene® 6 transfection reagent (from Roche). Stable clones expressing CRTH2 were selected by staining each clone with BM16 (BD Pharmingen™ from BD Biosciences, a division of Becton, Dickinson and Company), which is a rat monoclonal antibody to human CRTH2. The cells were maintained as monolayer cultures in Ham's F-12 medium containing 10% fetal bovine serum, 100 units/mL penicillin, 100 μg/mL streptomycin, 2 mM glutamine, 0.5 mg/mL G418 (geneticin) for CRTH2, and 0.2 mg/mL hygromycin-B (for G-alpha 16). For whole cell receptor binding assay, the monolayer cells were rinsed once with PBS (phosphate buffered saline), dissociated using ethylenediaminetetraacetate (Versene™ EDTA from Lonza Inc.), and suspended in PBS containing 10 mM MgCl2 and 0.06% BSA (bovine serum albumin) at 1.5×10^6 cells/mL.
The binding reactions (0.2 mL) were performed in 96-well plates at room temperature in PBS containing 1.5×10^5 cells, 10 mM MgCl2, 0.06% BSA, 20 nM [^3H]ramatroban, and test compound at various concentrations. After 1 hour of binding reactions, the cells were harvested on GF™/B filter microplates (microtiter plates with embedded glass fiber from PerkinElmer, Inc.) and washed 5 times with PBS using a Filtermate™ Harvester (a cell harvester that harvests and washes cells from microplates from PerkinElmer, Inc.). The radioactivities bound to the cells were determined using a microplate scintillation counter (TopCount® NXT, from PerkinElmer, Inc.) after adding 50 μL of Microscint™ 20 scintillation fluid (from PerkinElmer, Inc.) to each well of the filter plates. The radioactivity from non-specific binding was determined by replacing compound with 10 μM of 15(R)-15-methyl PGD2 (from Cayman Chemical Company) in the reaction mixtures. The radioactivity bound to the cells in the absence of compound (total binding) was determined by replacing compound with 0.25% of DMSO (dimethyl sulfoxide) in the reaction mixture. Specific binding data were obtained by subtracting the radioactivity of non-specific binding from each binding data.
The IC50 value is defined as the concentration of the tested compound that is required for 50% inhibition of total specific binding. In order to calculate the IC50 value, the percent inhibition data were determined for 7 concentrations for each compound. The percent inhibition for a compound at each concentration was calculated according to the following formula, [1−(specific binding in the presence of compound)/(total specific binding)]×100. The IC50 value was then obtained by fitting the percent inhibition data to a sigmoidal dose-response (4 parameter logistic) model in the XLfit® software Excel add-in program [from ID Business Solutions Ltd., model 205, where F(x)=(A+(B−A)/(1+((C/x)^D)))].

`Cc1c(CC(=O)O)cc2ccc(F)cc2c1Oc1ccc(S(=O)(=O)N2CCC(F)(F)CC2)cc1` [Example 2-42, {4-[4-(4,4-difluoro-piperidine-1-sulfonyl)-phenoxy]-6-fluoro-3-methyl-naphthalen-2-yl}-acetic acid] and `Cc1c(CC(=O)O)cc2ccc(F)cc2c1Oc1ccc(S(=O)(=O)N2CCCC2)cc1` [Example 2-38, {6-fluoro-3-methyl-4-[4-(pyrrolidine-1-sulfonyl)-phenoxy]-naphthalen-2-yl}-acetic acid] are within 1.5-fold of each other in IC50: 2.9 nM for the first, 2.2 nM for the second.

Going from `CCS(=O)(=O)c1ccc(Oc2cc(CC(=O)O)cc3ccc(F)cc23)nc1` [Example 1-11, [4-(5-ethanesulfonyl-pyridin-2-yloxy)-6-fluoro-naphthalen-2-yl]-acetic acid] to `CCS(=O)(=O)c1ccc(Oc2cc(CC(=O)O)cc3ccc(C)cc23)nc1` [Example 13-1, [4-(5-Ethanesulfonyl-pyridin-2-yloxy)-6-methyl-naphthalen-2-yl]-acetic acid], the IC50 rises from 5.6 nM to 73.7 nM (13-fold).

`Cc1cc(S(C)(=O)=O)cnc1Oc1c(C)c(CC(=O)O)cc2ccc(F)cc12` [Example 2-34, [6-fluoro-4-(5-methanesulfonyl-3-methyl-pyridin-2-yloxy)-3-methyl-naphthalen-2-yl]-acetic acid] and `CCc1cc(S(=O)(=O)CC)cnc1Oc1c(C)c(CC(=O)O)cc2ccc(F)cc12` [Example 20-1, [4-(5-Ethanesulfonyl-3-ethyl-pyridin-2-yloxy)-6-fluoro-3-methyl-naphthalen-2-yl]-acetic acid] are within 1.5-fold of each other in IC50: 3.1 nM for the first, 2.9 nM for the second.

Compared with `Cc1cc(Oc2c(C)c(CC(=O)O)cc3ccc(Cl)cc23)ccc1S(C)(=O)=O` [Example 2-8, [6-chloro-4-(4-methanesulfonyl-3-methyl-phenoxy)-3-methyl-naphthalen-2-yl]-acetic acid], `CCS(=O)(=O)c1ccc(Oc2c(C)c(CC(=O)O)cc3ccc(F)cc23)cc1Cl` [Example 2-19, [4-(3-chloro-4-ethanesulfonyl-phenoxy)-6-fluoro-3-methyl-naphthalen-2-yl]-acetic acid] is 2.8-fold higher in IC50: 4.5 nM for the first, 12.4 nM for the second.

Compared with `CCS(=O)(=O)c1ccc(Oc2c(C3CC3)c(CC(=O)O)cc3ccc(F)cc23)nc1` [Example 18-1, [3-Cyclopropyl-4-(5-ethanesulfonyl-pyridin-2-yloxy)-6-fluoro-naphthalen-2-yl]-acetic acid], `CCS(=O)(=O)c1ccc(Oc2c(C)c(CC(=O)O)cc3ccc(F)cc23)nc1` [Example 2-33, [4-(5-ethanesulfonyl-pyridin-2-yloxy)-6-fluoro-3-methyl-naphthalen-2-yl]-acetic acid] is 2.5-fold lower in IC50: 6.7 nM for the first, 2.7 nM for the second. The second is the more potent here.

`Cc1c(CC(=O)O)cc2ccc(F)cc2c1Oc1ccc(S(=O)(=O)c2ccc(Cl)cc2)cc1` [Example 2-31, {4-[4-(4-chloro-benzenesulfonyl)-phenoxy]-6-fluoro-3-methyl-naphthalen-2-yl}-acetic acid] and `Cc1c(CC(=O)O)cc2ccc(F)cc2c1Oc1ccc(S(=O)(=O)c2ccccc2)cc1` [Example 2-28, [4-(4-benzenesulfonyl-phenoxy)-6-fluoro-3-methyl-naphthalen-2-yl]-acetic acid] are within 1.5-fold of each other in IC50: 3.6 nM for the first, 5 nM for the second.

Going from `CCS(=O)(=O)c1ccc(Oc2cc(CC(=O)O)cc3ccc(OC)cc23)cc1` [Example 1-15, [4-(4-Ethanesulfonyl-phenoxy)-6-methoxy-naphthalen-2-yl]-acetic acid] to `CS(=O)(=O)c1ccc(Oc2cc(CC(=O)O)cc3ccc(Cl)cc23)cc1` [Example 1-3, [6-chloro-4-(4-methanesulfonyl-phenoxy)-naphthalen-2-yl]-acetic acid], the IC50 rises from 5.3 nM to 8.5 nM (1.6-fold).

Going from `Cc1c(CC(=O)O)cc2ccc(F)cc2c1Oc1ccc(S(=O)(=O)N2CC3(COC3)C2)cc1` [Example 2-43, {6-fluoro-3-methyl-4-[4-(2-oxa-6-aza-spiro[3.3]heptane-6-sulfonyl)-phenoxy]-naphthalen-2-yl}-acetic acid] to `CCS(=O)(=O)c1ccc(Oc2c(C)c(CC(=O)O)cc3ccc(F)cc23)cc1` [Example 2-1, [4-(4-ethanesulfonyl-phenoxy)-6-fluoro-3-methyl-naphthalen-2-yl]-acetic acid], the IC50 rises from 1.8 nM to 3.2 nM (1.8-fold). The first is the more potent here.

`CCCCS(=O)(=O)c1ccc(Oc2c(C)c(CC(=O)O)cc3ccc(F)cc23)cc1` [Example 2-23, {4-[4-(butane-1-sulfonyl)-phenoxy]-6-fluoro-3-methyl-naphthalen-2-yl}-acetic acid] and `Cc1c(CC(=O)O)cc2ccc(F)cc2c1Oc1ccc(S(=O)(=O)N(C)C)cc1` [Example 2-37, [4-(4-dimethylsulfamoyl-phenoxy)-6-fluoro-3-methyl-naphthalen-2-yl]-acetic acid] are within 1.5-fold of each other in IC50: 2.1 nM for the first, 1.9 nM for the second.

First: CCS(=O)(=O)c1ccc(Oc2cc(CC(=O)O)cc3ccc(Br)cc23)nc1 [Example 12-1, [6-Bromo-4-(5-ethanesulfonyl-pyridin-2-yloxy)-naphthalen-2-yl]-acetic acid]
Second: CCS(=O)(=O)c1ccc(Oc2c(F)c(CC(=O)O)cc3ccc(F)cc23)nc1 [Example 5-1, [4-(5-ethanesulfonyl-pyridin-2-yloxy)-3,6-difluoro-naphthalen-2-yl]-acetic acid]
The IC50 of the first is 1.7-fold higher: 5.3 nM for the first, 3.1 nM for the second.

Compared with `Cc1c(CC(=O)O)cc2ccc(F)cc2c1Oc1ccc(C#N)cc1` [Example 2-44, [4-(4-cyano-phenoxy)-6-fluoro-3-methyl-naphthalen-2-yl]-acetic acid], `Cc1c(CC(=O)O)cc2ccc(F)cc2c1Oc1ccc(S(=O)(=O)C(C)C)cc1` [Example 2-4, {6-fluoro-3-methyl-4-[4-(propane-2-sulfonyl)-phenoxy]-naphthalen-2-yl}-acetic acid] is 3.6-fold lower in IC50: 10 nM for the first, 2.8 nM for the second.

First: CS(=O)(=O)c1cnc(Oc2cc(CC(=O)O)cc3ccc(F)cc23)c(Br)c1 [Example 1-14, [4-(3-bromo-5-methanesulfonyl-pyridin-2-yloxy)-6-fluoro-naphthalen-2-yl]-acetic acid]
Second: Cc1c(CC(=O)O)cc2ccc(F)cc2c1Oc1ccc(S(C)(=O)=O)cc1Cl [Example 2-20, [4-(2-chloro-4-methanesulfonyl-phenoxy)-6-fluoro-3-methyl-naphthalen-2-yl]-acetic acid]
The IC50 of the first is 7.6-fold higher: 19.1 nM for the first, 2.5 nM for the second. The second is the more potent here.

Going from `CS(=O)(=O)c1ccc([S+]([O-])c2cc(CC(=O)O)cc3ccc(F)cc23)cc1` (centres unmarked) [Example 10-1, [6-fluoro-4-(4-methanesulfonyl-benzenesulfinyl)-naphthalen-2-yl]-acetic acid] to `Cc1c(CC(=O)O)cc2ccc(F)cc2c1Oc1ccc(S(C)(=O)=O)cc1F` [Example 2-12, [6-fluoro-4-(2-fluoro-4-methanesulfonyl-phenoxy)-3-methyl-naphthalen-2-yl]-acetic acid], the IC50 falls from 10.3 nM to 1.8 nM (5.7-fold). The second is the more potent here.

First: CCS(=O)(=O)c1ccc(Oc2c(C)c(CC(=O)O)cc3ccc(F)cc23)c(F)c1 [Example 2-13, [4-(4-ethanesulfonyl-2-fluoro-phenoxy)-6-fluoro-3-methyl-naphthalen-2-yl]-acetic acid]
Second: CCS(=O)(=O)c1ccc(Oc2c(C)c(CC(=O)O)cc3ccc(F)cc23)cc1F [Example 2-17, [4-(4-ethanesulfonyl-3-fluoro-phenoxy)-6-fluoro-3-methyl-naphthalen-2-yl]-acetic acid]
The IC50 of the first is 1.5-fold lower: 2.4 nM for the first, 3.7 nM for the second.

With `Cc1c(CC(=O)O)cc2ccc(F)cc2c1Oc1cc(F)c(S(C)(=O)=O)cc1F` [Example 2-15, [4-(2,5-difluoro-4-methanesulfonyl-phenoxy)-6-fluoro-3-methyl-naphthalen-2-yl]-acetic acid] the IC50 was 2.6 nM.
